From US20080293712A1, “Benzo[C][2,7]Naphtyridine Derivatives, Methods of Making Thereof and Methods of Use Thereof” (WYETH, priority 2007, published 2008)
Where two headings read alike, the source gives them in different places.

Biological target: T1, PDK-1 (Homo sapiens, UniProt O15530)
T1 sequence (O15530 1-556): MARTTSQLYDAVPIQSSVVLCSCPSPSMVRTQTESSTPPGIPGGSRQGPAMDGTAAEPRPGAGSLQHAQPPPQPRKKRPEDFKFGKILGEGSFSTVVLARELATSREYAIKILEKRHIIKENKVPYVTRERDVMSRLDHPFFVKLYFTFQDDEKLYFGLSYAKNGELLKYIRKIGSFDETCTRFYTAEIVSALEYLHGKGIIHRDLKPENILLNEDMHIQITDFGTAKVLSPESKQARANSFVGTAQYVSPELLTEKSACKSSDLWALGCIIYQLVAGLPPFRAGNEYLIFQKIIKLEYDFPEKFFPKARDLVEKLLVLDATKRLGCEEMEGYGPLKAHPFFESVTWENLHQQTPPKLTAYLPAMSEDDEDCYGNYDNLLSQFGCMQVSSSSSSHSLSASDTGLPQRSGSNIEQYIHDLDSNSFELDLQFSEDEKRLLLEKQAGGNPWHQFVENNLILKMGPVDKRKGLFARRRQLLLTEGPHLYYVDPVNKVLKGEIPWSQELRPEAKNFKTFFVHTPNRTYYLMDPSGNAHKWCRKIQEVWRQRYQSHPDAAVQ
Assay: PDK-1 kinase inhibition ELISA assay (phosphorylation of His6-tagged SGK1 S422D by PDK-1)
Format: biochemical

[1] = PDK-1 ELISA, Table 11, read-out: Average IC50

| Compound | IC50 [1] | IC50 |
| --- | --- | --- |
| COc1cc2ncc3c(N)nc(-c4cncc(OC[C@@H](N)CNC(C)(C)Cc5ccc(F)cc5)c4)cc3c2cc1OC [Ib-87, (2S)-3-{[5-(4-amino-8,9-dimethoxybenzo[c][2,7]naphthyridin-2-yl)pyridin-3-yl]oxy}-N1-[2-(4-fluorophenyl)-1,1-dimethylethyl]propane-1,2-diamine] | 12 nM |  |
| COc1cc2ncc3c(N)nc(-c4cncc(OC[C@@H](N)COc5ncccn5)c4)cc3c2cc1OC [Ib-149, 2-(5-{[(2R)-2-amino-3-(pyrimidin-2-yloxy)propyl]oxy}pyridin-3-yl)-8,9-dimethoxybenzo[c][2,7]naphthyridin-4-amine] | 7 nM |  |
| COCCOc1cc2ncc3c(N)nc(NCCN4CCCCC4)cc3c2cc1OC [Ia-49, 9-methoxy-8-(2-methoxyethoxy)-N^2-(2-piperidin-1-ylethyl)benzo[c]-2,7-naphthyridine-2,4-diamine] | > 20000 nM |  |
| CCN(Cc1ccncc1)C[C@H](N)COc1cncc(-c2cc3c(cnc4cc(OC)c(OC)cc43)c(N)n2)c1 [Ib-21, (2S)-3-{[5-(4-amino-8,9-dimethoxybenzo[c]-2,7-naphthyridin-2-yl)pyridin-3-yl]oxy}-N1-ethyl-N1-(pyridin-4-ylmethyl)propane-1,2-diamine] | 7 nM |  |
| COc1cc2c(cc1N1CCOCC1)ncc1c(N)nc(-c3cncc(OC[C@@H](N)Cc4ccccc4)c3)cc12 [Ia-39, 2-(5-{[(2S)-2-Amino-3-phenylpropyl]oxy}pyridin-3-yl)-9-methoxy-8-morpholin-4-ylbenzo[c]-2,7-naphthyridin-4-amine] | 59 nM |  |
| CCCCN(C[C@H](N)COc1cncc(-c2cc3c(cnc4cc(OC)c(OC)cc43)c(N)n2)c1)S(=O)(=O)c1ccccc1 [Ib-77, N-[(2S)-2-amino-3-{[5-(4-amino-8,9-dimethoxybenzo[c][2,7]naphthyridin-2-yl)pyridin-3-yl]oxy}propyl]-N-butylbenzenesulfonamide] | 21 nM |  |
| COc1cc2ncc3c(N)nc(-c4cncc(OC[C@@H](N)CNC(C)(C)c5ccccc5)c4)cc3c2cc1OC [Ib-90, (2S)-3-{[5-(4-amino-8,9-dimethoxybenzo[c][2,7]naphthyridin-2-yl)pyridin-3-yl]oxy}-N1-(1-methyl-1-phenylethyl)propane-1,2-diamine] | 7 nM |  |
| COc1cc2ncc3c(N)nc(-c4cncc(OC[C@@H](N)CN(C)Cc5cccnc5)c4)cc3c2cc1OC [Ib-6, (2S)-3-{[5-(4-amino-8,9-dimethoxybenzo[c]-2,7-naphthyridin-2-yl)pyridin-3-yl]oxy}-N1-methyl-N1-(pyridin-3-ylmethyl)propane-1,2-diamine] | 4 nM |  |
| COc1cc2ncc3c(N)nc(-c4cncc(OC[C@@H](N)CNc5ccccc5)c4)cc3c2cc1OC [Ib-80, (2S)-3-{[5-(4-amino-8,9-dimethoxybenzo[c][2,7]naphthyridin-2-yl)pyridin-3-yl]oxy}-N^1-phenylpropane-1,2-diamine] | 3 nM |  |
| COc1cc2ncc3c(N)nc(-c4cncc(OC[C@@H](N)CNCC5(c6ccccc6)CCOCC5)c4)cc3c2cc1OC [Ib-104, (2S)-3-{[5-(4-amino-8,9-dimethoxybenzo[c][2,7]naphthyridin-2-yl)pyridin-3-yl]oxy}-N1-[(4-phenyltetrahydro-2H-pyran-4-yl)methyl]propane-1,2-diamine] | 25 nM |  |
| COCCOc1cc2ncc3c(N)nc(N4CCC(CCO)CC4)cc3c2cc1OC [Ia-51, 2-{1-[4-amino-9-methoxy-8-(2-methoxyethoxy)benzo[c]-2,7-naphthyridin-2-yl]piperidin-4-yl}ethanol] | 3720 nM |  |
| COCCOc1cc2ncc3c(N)nc(N(C)C4CCN(C)C4)cc3c2cc1OC (stereo not shown) [Ia-52, 9-methoxy-8-(2-methoxyethoxy)-N2-methyl-N^2-(1-methylpyrrolidin-3-yl)benzo[c]-2,7-naphthyridine-2,4-diamine] | 3280 nM |  |
| COc1cc2ncc3c(N)nc(-c4cncc(OC[C@@H](N)CNc5ccc(N)cc5)c4)cc3c2cc1OC [Ib-111, N-[(2S)-2-amino-3-{[5-(4-amino-8,9-dimethoxybenzo[c][2,7]naphthyridin-2-yl)pyridin-3-yl]oxy}propyl]benzene-1,4-diamine] | 81 nM |  |
| COc1cc2ncc3c(N)nc(-c4cncc(OC[C@@H]5CN=C(Nc6ccccc6)N5)c4)cc3c2cc1OC [Ib-114, 2-(5-{[(5S)-2-anilino-4,5-dihydro-1H-imidazol-5-yl]methoxy}pyridin-3-yl)-8,9-dimethoxybenzo[c][2,7]naphthyridin-4-amine] | 82 nM |  |
| COc1cc2ncc3c(N)nc(-c4cncc(OC[C@@H](N)COc5cc(C(F)(F)F)ccc5F)c4)cc3c2cc1OC [Ib-144, 2-[5-({(2R)-2-amino-3-[2-fluoro-5-(trifluoromethyl)phenoxy]propyl}oxy)pyridin-3-yl]-8,9-dimethoxybenzo[c][2,7]naphthyridin-4-amine] | 64 nM |  |
| CC[C@H](N)COc1cncc(-c2cc3c(cnc4cc(OC)c(OC)cc43)c(N)n2)c1 [Ib-14, 2-(5-{[(2S)-2-aminobutyl]oxy}pyridin-3-yl)-8,9-dimethoxybenzo[c]-2,7-naphthyridin-4-amine] | 6 nM |  |

More lines, now with the values ahead:

| IC50 [1] | IC50 | Compound |
| --- | --- | --- |
| 505 nM |  | COc1cc2ncc3c(N)nc(-c4cncc(Nc5ccccc5Nc5ccccc5)c4)cc3c2cc1OC [Ib-183, N-[5-(4-amino-8,9-dimethoxybenzo[c][2,7]naphthyridin-2-yl)pyridin-3-yl]-N′-phenylbenzene-1,2-diamine] |
| 606 nM |  | CCC(C)NC(=N)c1cncc(-c2cc3c(cnc4cc(OC)c(OC)cc43)c(N)n2)c1 (stereo not shown) [Ib-270, 5-(4-Amino-8,9-dimethoxybenzo[c][2,7]naphthyridin-2-yl)-N-sec-butylnicotin-imidamide] |
| 600 nM |  | COc1cc2ncc3c(N)nc(-c4cncc(Nc5ccc(C#N)cc5)c4)cc3c2cc1OC [Ib-180, 4-{[5-(4-amino-8,9-dimethoxybenzo[c][2,7]naphthyridin-2-yl)pyridin-3-yl]amino}benzonitrile] |
| 12 nM |  | COc1cc2ncc3c(N)nc(-c4cncc(OC[C@@H](N)CSc5ccc(Cl)cc5Cl)c4)cc3c2cc1OC [Ib-163, 2-[5-({(2R)-2-amino-3-[(2,4-dichlorophenyl)thio]propyl}oxy)pyridin-3-yl]-8,9-dimethoxybenzo[c][2,7]naphthyridin-4-amine] |
| 5 nM |  | COc1cc2ncc3c(N)nc(-c4cncc(OC[C@@H](N)CSc5ncc(CO)n5C)c4)cc3c2cc1OC [Ib-167, (2-{[(2R)-2-amino-3-{[5-(4-amino-8,9-dimethoxybenzo[c][2,7]naphthyridin-2-yl)pyridin-3-yl]oxy}propyl]thio}-1-methyl-1H-imidazol-5-yl)methanol] |
| 205 nM |  | COc1cc2ncc3c(N)nc(-c4ccc5[nH]ncc5c4)cc3c2cc1OC [Ib-249, 2-(1H-indazol-5-yl)-8,9-dimethoxybenzo[c][2,7]naphthyridin-4-amine] |
| 18 nM |  | C=CCOc1cncc(-c2cc3c(cnc4cc(OC)c(OC)cc43)c(N)n2)c1 [Ib-266, 2-(5-(Allyloxy)pyridin-3-yl)-8,9-dimethoxybenzo[c][2,7]naphthyridin-4-amine] |
| 164 nM |  | COc1cc2ncc3c(N)nc(-c4cncc(Nc5ccccc5C(N)=O)c4)cc3c2cc1OC [Ib-186, 2-{[5-(4-amino-8,9-dimethoxybenzo[c][2,7]naphthyridin-2-yl)pyridin-3-yl]amino}benzamide] |
| 4 nM |  | COc1cc2ncc3c(N)nc(-c4cncc(OC[C@@H](N)COc5ncc(Cl)cc5Cl)c4)cc3c2cc1OC [Ib-153, 2-[5-({(2R)-2-amino-3-[(3,5-dichloropyridin-2-yl)oxy]propyl}oxy)pyridin-3-yl]-8,9-dimethoxybenzo[c][2,7]naphthyridin-4-amine] |
| 50.7 nM |  | COc1cc2ncc3c(N)nc(-c4cncc(Nc5ccccc5N)c4)cc3c2cc1OC [Ib-182, N-[5-(4-amino-8,9-dimethoxybenzo[c][2,7]naphthyridin-2-yl)pyridin-3-yl]benzene-1,2-diamine] |
| 9 nM |  | COc1cc2ncc3c(N)nc(-c4cncc(OC[C@@H](N)COc5cc(C)ccn5)c4)cc3c2cc1OC [Ib-152, 2-[5-({(2R)-2-amino-3-[(4-methylpyridin-2-yl)oxy]propyl}oxy)pyridin-3-yl]-8,9-dimethoxybenzo[c][2,7]naphthyridin-4-amine] |
|  | 73.7 nM | COc1ccccc1Nc1cncc(-c2cc3c(cnc4cc(OC)c(OC)cc43)c(N)n2)c1 [Ib-181, 8,9-dimethoxy-2-{5-[(2-methoxyphenyl)amino]pyridin-3-yl}benzo[c][2,7]naphthyridin-4-amine] |
|  | 24 nM | COc1cc2ncc3c(N)nc(-c4cncc(Nc5ccccc5CCO)c4)cc3c2cc1OC [Ib-197, 2-(2-{[5-(4-amino-8,9-dimethoxybenzo[c][2,7]naphthyridin-2-yl)pyridin-3-yl]amino}phenyl)ethanol] |
| 27 nM |  | COc1cc2ncc3c(N)nc(-c4cncc(CCC5(N)CCCCC5)c4)cc3c2cc1OC [Ib-258, 2-{5-[2-(1-aminocyclohexyl)ethyl]pyridin-3-yl}-8,9-dimethoxybenzo[c][2,7]naphthyridin-4-amine] |
| 55 nM |  | COc1cc2ncc3c(N)nc(-c4cncc(OC[C@@H](N)COc5ccc(CCC#N)cc5)c4)cc3c2cc1OC [Ib-158, 3-(4-{[(2S)-2-amino-3-{[5-(4-amino-8,9-dimethoxybenzo[c][2,7]naphthyridin-2-yl)pyridin-3-yl]oxy}propyl]oxy}phenyl)propanenitrile] |
